Source: US10406236B2, “Single wall nanotube constructs and uses thereof” (Sloan-Kettering Institute for Cancer Research, priority 2005, dated 2019)

Assays:
peptide pulsed APCs = assay: ^51Cr cytotoxicity assay; format: cell-based, mouse; conditions: E:T ratios 1:60-1:7, 4 hours
Procedure: To detect the cytotoxic nature of the activated CD8+ T cells peptide specific CD8+ cells and irradiated peptide pulsed APCs were prepared as described above. The peptide sensitized APCs were labeled with 100 μCi of ^51Cr and incubated together with the CD8+ cells at E:T ratios varying from 1:60-1:7. After incubation together for 4 hours, supernatants were harvested and measured in a gamma counter.

CD8+ T cells = assay: WT-1 peptide specific CTL responses in vivo (ELISPOT); conditions: mouse
Procedure: Mouse footpads of C57BL/6 or BALB/c, depending on the peptide specificity, are injected with the various OVA constructs in the presence or absence of adjuvant (Titermax, Sigma) along with appropriate control groups. Serum from immunized animals is obtained via retro-orbital bleeding and assayed for SWNT specific Abs using the ELISA protocol described above.
HA-Multiscreen plates were coated with rat-anti-mouse IFN-g antibody (MabTech). CD8+ T cells isolated and purified from the paplitial lymph nodes of immunized animals are plated, and APCs from a non-immunized mouse are isolated, irradiated, pulsed with peptides, and added to the CD8+ T cells at an E:T ratio of 1:4. The cellular mixture is incubated overnight at 37° C. and the plates were developed the next day using an antibody against rat IgG. Spots were counted using a computer assisted video image analyzer with KS ELISPOT 4.0 software (Carol Zeiss Vision, Germany).
A few of these peptides were screened for their ability to elicit WT-1 peptide specific CTL responses in vivo using the methods described above.

tumor expressing cells = conditions: previous reports; cited from earlier work
serum antibodies = assay: Competition study of serum antibodies to SWNT; format: binding, Balb/c mice; conditions: high concentrations (>0.1 mg/ml)
GFP1/FFLuc1 Daudi tumor = assay: Biodistribution and tumor targeting in disseminated lymphoma model; format: in vivo; conditions: 24 h after i.v. injection, tumor-bearing scid mice
Procedure: The specific SWNT-rituximab-^111In*DOTA construct or control SWNT-HuM195-^111In*DOTA (Lintuzumab) construct was prepared by adding 111-185 MBq of acidic 111In chloride to 0.50 mg of SWNT-rituximab-DOTA or SWNT-HuM195-DOTA (50 g/L) in MFW and 0.050 mL of 3 M ammonium acetate to yield a pH 5.5 solution. The reaction mixture was maintained at ambient temperature for 30 min and then purified using a 10DG column with 1% HSA/0.9% NaCl. The radiochemical purity of SWNT-rituximab-DOTA or SWNT-HuM195-DOTA was 95% and the radiolabeled Rituximab was 98% as determined by the ITLC-SG methods described herein.
The biodistribution and tumor targeting specificity of SWNT-rituximab-^111In*DOTA was evaluated against different controls in a murine model of disseminated lymphoma (33) using the GFP1/FFLuc1 Daudi cell line. The tumor was introduced by injecting 5 million cells into each of the female C.B.-17 severe combined immunodeficiency (scid) mice (8- to 10-wk old; Taconic Farms) intravenously via the retroorbital sinus route. Tumor growth in mice was determined by BLI using a Xenogen IVIS Optical Imaging System (Xenogen Corp.). Imaging was performed on mice that received an intraperitoneal injection of 3 mg of D-Luciferin (Xenogen) per mouse. On day 28 after tumor infusion, the tumor-bearing mice were separated into 4 groups; an additional 2 groups of scid mice with no tumor were included as control. […]

Daudi (CD20+, specific) = conditions: reference (33); cited from earlier work

Compound	stimulation of CD8+ T cells that cross react with the native sequence (CD8+ T cells)	immune response (WT-1 peptide specific CTL response in vivo) (CD8+ T cells)	other results
RYFPNAPYL [WTI-126A]	–	–	heteroclitic response (peptide pulsed APCs): able to stimulate a heteroclitic response; killing of peptide pulsed targets by CD8+ T cells (peptide pulsed APCs): killed pulsed targets
CMTWNQMNL [WTI-235]	unable	–	ability to kill tumor expressing cells or to produce a successful vaccine (tumor expressing cells): limited ability
SYLESQPTI [WTI-136A]	stimulated CD8+ T cells that cross reacted with the native sequence	robust immune response	–
AYLPAVSSL [WTI-10A]	stimulated CD8+ T cells that cross reacted with the native sequence	robust immune response	–
O=C(O)CCCC[C@@H]1SC[C@@H]2NC(=O)N[C@@H]21 [biotin]	–	–	inhibition of serum antibodies (serum antibodies): did not
ALLPAVSSL [WTI-10]	unable	–	–
SCLESQPTI [WTI-136]	unable	–	–
CMTWNQMNM [WTI-235A]	stimulated CD8+ T cells that cross reacted with the native sequence	robust immune response	heteroclitic response (peptide pulsed APCs): able to stimulate a heteroclitic response; killing of peptide pulsed targets by CD8+ T cells (peptide pulsed APCs): killed pulsed targets
[111In]Rituximab: ^111In-labeled Rituximab targeting antibody, positive control	–	–	femur % ID/g (GFP1/FFLuc1 Daudi tumor): 11.4±3.32 % ID/g; immunoreactive fraction measured previously (Daudi (CD20+, specific)): 42%±17%
